Source: publication PMC5824847, “Linear peptidomimetics as potent antagonists of Staphylococcus aureus agr quorum sensing” (Scientific Reports, 2018)
Values after ≈ are worked out from the molar mass of the structure shown. “Also recorded” adds a separate entry of the source. Square brackets hold non-standard residues; d marks the D form. Peptide text beside a SMILES is read from it. N(1-naphthylmethyl)Gly = O=C(O)CNCc1cccc2ccccc12; N(4-MeBn)Gly = Cc1ccc(CNCC(=O)O)cc1; NBuGly = CCCCNCC(=O)O

Tests used:
[1] = test system: 8325-4 and RN10829 WT S. aureus strains; assay: Minimum Inhibitory Concentration (MIC); type: cell-based, Staphylococcus aureus; conditions: TSB, two-fold dilution series 4 to 256 μg/ml, approx. 5 × 10^5 CFU/ml, 24 hours at 37 °C; lowest concentration with no growth; values identical for 8325-4 and RN10829 WT
Description: Overnight cultures (24 h, 37 °C, 200 rpm in TSB) of S. aureus strains were diluted 5000X in fresh TSB and was aliquoted into 96-well microtiter plates with two-fold dilution series of the peptidomimetics ranging from 4 μg/ml to 256 μg/ml (final concentration) to reach an initial cell density of approximately 5 × 10^5 CFU/ml. DMSO was used as control and the plate was incubated for 24 hours at 37 °C. The MICs of the peptidomimetics were recorded as the lowest concentration for which no bacterial growth was observed.
Supplementary Table S2: Minimum Inhibitory Concentration (MIC) of the peptidomimetics tested on 8325-4 and RN10829 WT S. aureus strains (MIC values were identical for both strains, thus are represented here in one column).

[2] = RP-HPLC retention time (hydrophobicity); type: physicochemical; conditions: analytical RP-HPLC; used by the paper as a measure of hydrophobicity
Description: The synthesis of the peptidomimetics was performed as described by Oddo et al. (2015)[51]. According to this, a combination of Fmoc Solid Phase Peptide Synthesis (SPPS) and sub-monomer approach was applied. After the synthesis, the peptidomimetics were purified (>95%) by preparative HPLC and the purity was determined through analytical HPLC. Moreover, the MALDI-TOF-MS was used in order to verify the identity of the peptidomimetics.

[3] = test system: S. aureus virulence gene expression (agr; RNAIII, hla, spa reporters); assay: Agar diffusion reporter assay, overall activity on the three reporters; type: cell-based, Staphylococcus aureus; conditions: TSA plates with RNAIII::lacZ, hla::lacZ and spa::lacZ reporters, 10 μg/well (500 μg/ml; 20 μl/well)
Description: The reporter assay was conducted as described by Nielsen et al. (2010) using three different lacZ transcriptional reporter strains, PC203, PC322 and SH101F[37]. Test compounds dissolved in H2O or DMSO was added to agar wells at indicated concentrations and solvent only was included as a control. Incubation until blue color appeared in plates varied from 9 h to 48 h. The ability of the peptidomimetics to influence virulence gene expression was observed based on the color change around the wells; a white halo represents downregulation of virulence gene expression, while a blue halo represents upregulation of expression, with the size of the halo being indicative of the degree of interference.

**Q.** With `CCCCN(CC(=O)N(CC(=O)NCC(N)=O)Cc1cccc2ccccc12)C(=O)[C@H](CCCCN)NC(=O)[C@H](CCCCN)NC(=O)CN(Cc1ccc(C)cc1)C(=O)CNCc1cccc2ccccc12` [G7] (H-[N(1-naphthylmethyl)Gly][N(4-MeBn)Gly]KK[NBuGly][N(1-naphthylmethyl)Gly]G-NH2) as the compound, how does the MIC [1] read?
**A.** Its MIC is 64 µg/mL (≈ 64 µM).

**Q.** What about the “Rt (RP-HPLC retention time)” value [2] of the same compound?
**A.** The value was 17.5 min.

**Q.** What about the “Activity on virulence gene expression (agr modulatory activity), overall” value [3] of the same compound?
**A.** The value was “increased activity; also recorded: greatly improved agr-inhibitory activity compared to D3”.
